Source: ChEMBL document CHEMBL1144255, “A non-crosslinking platinum-acridine hybrid agent shows enhanced cytotoxicity compared to clinical BCNU and cisplatin in glioblastoma cells” (Bioorg Med Chem Lett, 2005)

Columns and labels:
[1] = In vitro inhibitory concentration against growth of SNB19 glioblastoma cell line in clonogenic survival assay after 24 hr; format: functional, cell-based, Homo sapiens
[2] = tested on: U-87 MG; experiment: In vitro inhibitory concentration against growth of U87MG glioblastoma cell line in clonogenic survival assay after 24 hr; format: functional, cell-based, Homo sapiens, U-87MG ATCC
[3] = Homo sapiens, Glioblastoma, 24 h

Compound	IC50 [1, 3]	IC50 ([2]; Homo sapiens, U-87 MG, 24 h)	IC50 ([1]; glioblastoma)	IC50 ([2]; u-87mg atcc)
O=NN(CCCl)C(=O)NCCCl [CARMUSTINE]	2370 nM	1420 nM	–	–
CNC(=S)N(C)CCNc1c2ccccc2nc2ccccc12	2460 nM	1830 nM	–	–
CISPLATIN	–	–	810 nM	490 nM
